Laboratory results reported in paper PMC9138090, “Study on the Neuroprotective, Radical-Scavenging and MAO-B Inhibiting Properties of New Benzimidazole Arylhydrazones as Potential Multi-Target Drugs for the Treatment of Parkinson’s Disease” (Antioxidants, 2022).
Entries after “also recorded” stand apart in the source; their conditions may differ.

What was measured:
rat brain synaptosomes = test: GSH level in isolated synaptosomes, toxicity evaluation; format: cell-based; conditions: concentrations < 250 µM (1 to 250 µM tested)
Protocol: Synaptosomes were prepared from brains of adult male Wistar rats. The brains were homogenized in 10 volume of cold buffer 1, containing 5 mM HEPES and 0.32 M sucrose (pH = 7.4). The brain homogenate was centrifuged twice at 1000× g for 5 min at 4 °C. The supernatant was collected and centrifuged 3 times at 10,000× g for 20 min at 4 °C. The pellet was re-suspended in ice-cold buffer 1. The synaptosomes were isolated by using Percoll reagent to prepare the gradient. Synaptosomes were re-suspended and incubated in buffer 2, containing 290 mM NaCl, 0.95 mM MgCl2 × 6H2O, 10 mM KCl, 2.4 mM CaCl2 × H2O, 2.1 mM NaH2PO4, 44 mM HEPES, and 13 mM D-glucose. Incubations were performed in a 5% CO2 + 95% O2 atmosphere. The content of synaptosomal protein was determined according to the method of Lowry et al. using bovine serum albumin as a standard.
Following treatment with the tested compounds, the glutathione levels were determined using Ellman reagent (DTNB), which forms color complexes with the SH group at pH = 8, with maximum absorbance at 412 nm. The synaptosomes were centrifuged at 500× g for 1 min and the sediment was used to measure GSH level. The sediment was precipitated with 5% TCA, then centrifuged for 10 min at 4000× g and the GSH level in the supernatant was measured using DTNB spectrophotometrically at 412 nm. The biochemical parameters were determined by spectrophotometric methods using a Spectro UV-VIS Split spectrophotometer (LaboMed.Inc, Los Angeles, CA, USA).
The low toxicity and substantial neuroprotective properties shown by some of the potential drug candidates in human neuroblastoma SH-SY5Y cells directed the experimental work to be elaborated on a different cellular in vitro model using freshly isolated rat brain synaptosomes for the evaluation of the protective effects and toxicity of selected promising compounds [56]. The rat brain synaptosomes represent a terminal part of the axons and contain synaptic vesicles, mitochondria, lysosomes, parts of the cell membrane, neurotransmitters, which diffuse across the synaptic cleft. Besides the presynaptic membrane, a part of postsynaptic membrane with the postsynaptic density is often attached to the nerve ending. In their experiments, Student and Edwards examined the subcellular localization of the A and B forms of MAO in rat brain. […] The authors conclude from the data that MAO-B activity is, indeed, associated with synaptosomes and may be non-uniformly located among different populations of synaptic endings. The functional-metabolic status of the synaptosomes was evaluated by measuring the synaptosomal viability (MTT assay) and the levels of reduced gluthathione (GSH) (Figure 2). […]

SH-SY5Y cells = test: H2O2-induced oxidative stress model in SH-SY5Y cells; format: cell-based, human; conditions: for cell viability protection vs. H2O2-treatment: 50 µM, 90 min pre-incubation, H2O2 1 mM 15 min; for protective effect in H2O2-induced oxidative stress model (in words): 1, 10, 50 µM
Protocol: SH-SY5Y cells were seeded in 96-well plates at a density of 3.5 × 10^4/well and allowed to attach at the wells’ bottom overnight. […] Afterwards, the SH-SY5Y cells were washed with phosphate-buffered saline (PBS) to remove the extracellular amount of the test compounds. […] Then, the contents of all wells were changed with culture medium. After 24 h, the amount of attached viable cells was evaluated by MTT assay. […] Rasagiline and melatonin (Sigma-Aldrich Chemie GmbH) were used as reference compounds because of their well-established neuroprotective activity. […] The toxic mechanisms of hydrogen peroxide include the generation of reactive hydroxyl radicals and formation of products which could damage cellular lipids, proteins and DNA. […] For comparison, the effects of two compounds with well established antioxidant activity—rasagiline and melatonin—were also evaluated.

[1] = Fe(II)-induced degradation of 2-deoxyribose (TBA-RS); conditions: 80 µmol/L, 2-deoxyribose 0.5 mmol/L
Protocol: (§1) The classical method of determining the TBA-reactive substances at 532 nm as described by Asakawa and Matsushita has been used. Two groups of measurement compositions named controls and samples were prepared in phosphate buffer (K2HPO4/KH2PO4, pH 7.4) for each of the used substrates. Both of them contained equivalent concentrations of lecithin (1 mg/mL) or 2-deoxyribose (0.5 mmol/L) and FeCl2 (0.1 mmol/L). In the controls, the tested hydrazones have been omitted and in the samples the effect of the newly designed compounds at the concentrations indicated below the figures has been determined. The obtained samples were incubated at 37 °C for 30 min. The reaction was stopped, and after adding 0.5 mL 2.8% trichloroacetic acid and 0.5 mL of thiobarbituric acid, the samples were heated in boiling water for 20 min. The lecithin containing samples were centrifuged at 3000 rpm for 20 min and the supernatant was aspired out. The results have been presented as a percentage of the control sample, treated only with ferrous iron where we expected maximum oxidative damage under the described conditions.

[2] = Fe(II)-induced oxidative damage of lecithin (TBA-RS); conditions: 90 µmol/L
Protocol: as §1

[3] = Superoxide scavenging, non-enzymatic KO2/NBT assay; conditions: 100 µM; text says enzymatic assay
Protocol: Superoxide radicals scavenging activity (non-enzymatic assay): 1 mL PBS, pH 7.4 contains 0.04 mmol/L NBT and the tested hydrazone in the concentrations indicated on the figures. No drug was added to the control samples. One minute after the addition of 20 μL of KO2 dissolved in DMSO, the absorbance at 560 nm was measured.
The results from both assays have been presented as a percentage of the control sample.
The potency of the compounds selected as the most promising from the cell model systems and hMAOB inhibitory studies was estimated against enzymatically (xanthine/XO system) and non-enzymatically (KO2/NBT) produced superoxide radicals (Figure 7). In the xanthine-xanthine oxidase system the generation of O2^−^● is a result of an enzymatic reaction. The molecular mechanism of action of the XO enzyme is associated with catalysation of the reaction of oxidation of hypoxanthine and xanthine and generation of uric acid. During the process of reoxidation of the enzyme, the molecular oxygen acts as an electron acceptor and the formation of physiologically important ROS, such as the superoxide radical (O2^−^●) and hydrogen peroxide (H2O2), has been observed. In the potassium superoxide-containing systems, superoxide radical generation is due to the direct addition of the KO2 to the water sample solution. […]

SMILES	effect on level of GSH in synaptosomes (rat brain synaptosomes)	cell viability protection vs. H2O2-treatment (SH-SY5Y cells) [%]	protective effect in H2O2-induced oxidative stress model (in words) (SH-SY5Y cells)	antioxidant effect on Fe(II) induced deoxyribose degradation (in words) [1]	sample/control absorbance ratio (% of the control), lecithin peroxidation ([2]; lecithin 1 mg/mL, FeCl2 0.1 mmol/L)	increase of absorbance compared to the controls [3] [times]	lecithin peroxidation effect compared with 3a (in words) [2]
O=C(CCn1c(=S)n(CCC(=O)NN=Cc2cccc(O)c2O)c2ccccc21)NN=Cc1cccc(O)c1O [3h, 3,3′-(2-Thioxo-1H-benzo[d]imidazole-1,3(2H)-diyl)bis(N′-(2,3-dihydroxybenzylidene)propanehydrazide)]	did not significantly reduce; also recorded: did not change	79	even more pronounced than those of melatonin and rasagiline	stronger than the reference melatonin and similar to Trolox; also recorded: better protection effect than the reference melatonin, and a similar effect to the antioxidant Trolox	around 40%		
O=C(CCn1c(=S)n(CCC(=O)NN=Cc2ccccc2O)c2ccccc21)NN=Cc1ccccc1O [3e, 3,3′-(2-Thioxo-1H-benzo[d]imidazole-1,3(2H)-diyl)bis(N′-(2-hydroxybenzylidene)propanehydrazide)]	did not change					1.5	
COc1ccc(C=NNC(=O)CCn2c(=S)n(CCC(=O)NN=Cc3ccc(OC)cc3O)c3ccccc32)c(O)c1 [3m, 3,3′-(2-Thioxo-1H-benzo[d]imidazole-1,3(2H)-diyl)bis(N′-(2-hydroxy-4-methoxybenzylidene)propanehydrazide)]	did not change						
O=C(CCn1c(=S)n(CCC(=O)NN=Cc2ccc(O)cc2O)c2ccccc21)NN=Cc1ccc(O)cc1O [3i, 3,3′-(2-Thioxo-1H-benzo[d]imidazole-1,3(2H)-diyl)bis(N′-(2,4-dihydroxybenzylidene)propanehydrazide)]	did not significantly reduce; also recorded: did not change	80	even more pronounced than those of melatonin and rasagiline			2.5	statistically identical effect to 3a
